Laboratory results taken from US10934310B2, “Inhibitors of Bruton's tyrosine kinase and method of their use” (JANSSEN PHARMACEUTICA NV, priority 2015, dated 2021).

target: unphosphorylated-BTK kinase domain (UP-BTK), GST-tagged human BTK (389-659aa) (Homo sapiens (Human), UniProt Q06187); test: BTK Kinase Lanthascreen Binding Assay; conditions: compound, 50 nM Tracer 236, 2 nM anti-GST antibody, 60 minutes; pIC50 = negative log of the IC50 in molar
Procedure: BTK Kinase Lanthascreen Binding Assay:
A BTK kinase lanthascreen binding assay monitors compound binding to unphosphorylated-BTK kinase domain (UP-BTK), by competing with a fluorescent labeled tracer. […] Data were analyzed using Xlfit™ version 5.3 from ID Business Solutions (Guildford), Microsoft Excel add-in. pIC50 refers to the negative log of the IC50 in molar.

unphosphorylated-BTK kinase domain (UP-BTK), GST-tagged human BTK (389-659aa), sequence (Q06187 389-659): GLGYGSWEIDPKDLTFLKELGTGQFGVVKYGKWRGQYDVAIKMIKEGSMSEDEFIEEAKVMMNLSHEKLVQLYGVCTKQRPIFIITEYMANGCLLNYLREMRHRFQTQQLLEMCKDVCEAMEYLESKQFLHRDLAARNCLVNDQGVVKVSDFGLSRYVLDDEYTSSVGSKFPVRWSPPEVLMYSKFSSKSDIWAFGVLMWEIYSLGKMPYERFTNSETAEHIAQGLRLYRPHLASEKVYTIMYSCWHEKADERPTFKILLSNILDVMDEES

Row | SMILES | BTK_I_binding pIC50
1 | Cc1cc(Oc2ccccc2)ccc1N1C(=O)Nc2c(C(=O)N[C@@H]3CC[C@@H](NC(=O)CN(C)C)C3)sc3nccc1c23 [Example 217, N-((1R,3R)-3-(2-(Dimethylamino)acetamido)cyclopentyl)-5-(2-methyl-4-phenoxyphenyl)-4-oxo-4,5-dihydro-3H-1-thia-3,5,8-triazaacenaphthylene-2-carboxamide] | 7.44
2 | C=CC(=O)N[C@@H]1CCCC[C@H]1NC(=O)c1sc2nccc3c2c1NC(=O)N3c1ccc(Oc2ccccc2)cn1 [Example 218, N-((1R,2R)-2-Acrylamidocyclohexyl)-4-oxo-5-(5-phenoxypyridin-2-yl)-4,5-dihydro-3H-1-thia-3,5,8-triazaacenaphthylene-2-carboxamide] | 6.76
3 | C=CC(=O)N[C@H]1CCC[C@H]1NC(=O)c1sc2nccc3c2c1NC(=O)N3c1ccc(Oc2ccccn2)cc1C [Example 220, N-((1R,2S)-2-acrylamidocyclopentyl)-5-(2-methyl-4-(pyridin-2-yloxy)phenyl)-4-oxo-4,5-dihydro-3H-1-thia-3,5,8-triazaacenaphthylene-2-carboxamide] | 8.16
4 | C=CC(=O)N[C@H]1CCCC[C@H]1NC(=O)c1sc2nccc3c2c1NC(=O)N3c1cnc(OC2CCCC2)cc1C [Example 223, N-((1R,2S)-2-Acrylamidocyclohexyl)-5-(6-(cyclopentyloxy)-4-methylpyridin-3-yl)-4-oxo-4,5-dihydro-3H-1-thia-3,5,8-triazaacenaphthylene-2-carboxamide] | 7.81
5 | C=CC(=O)N[C@H]1CCC[C@H]1NC(=O)c1sc2nccc3c2c1NC(=O)N3c1ccc(Oc2ncccn2)cc1C [Example 224, N-((1R,2S)-2-acrylamidocyclopentyl)-5-(2-methyl-4-(pyrimidin-2-yloxy)phenyl)-4-oxo-4,5-dihydro-3H-1-thia-3,5,8-triazaacenaphthylene-2-carboxamide] | 7.46
6 | C=CC(=O)N[C@H]1CCCC[C@H]1NC(=O)c1sc2nccc3c2c1NC(=O)N3c1cnc(OCC(C)C)cc1C [Example 225, N-((1R,2S)-2-Acrylamidocyclohexyl)-5-(6-isobutoxy-4-methylpyridin-3-yl)-4-oxo-4,5-dihydro-3H-1-thia-3,5,8-triazaacenaphthylene-2-carboxamide] | 7.66
7 | C=CC(=O)N[C@@H]1CCCC[C@H]1NC(=O)c1sc2nccc3c2c1NC(=O)N3c1ccnc(-c2ccccc2)c1 [Example 227, N-((1R,2R)-2-Acrylamidocyclohexyl)-4-oxo-5-(2-phenylpyridin-4-yl)-4,5-dihydro-3H-1-thia-3,5,8-triazaacenaphthylene-2-carboxamide] | 6.76
8 | CC(=O)N[C@@H]1CC[C@@H](NC(=O)c2sc3nccc4c3c2NC(=O)N4c2ccc(Oc3ccccc3)cc2C)C1 [Example 228, N-((1R,3R)-3-Acetamidocyclopentyl)-5-(2-methyl-4-phenoxyphenyl)-4-oxo-4,5-dihydro-3H-1-thia-3,5,8-triazaacenaphthylene-2-carboxamide] | 7.34
9 | CNCC(=O)N[C@@H]1CC[C@@H](NC(=O)c2sc3nccc4c3c2NC(=O)N4c2ccc(Oc3ccccc3)cc2C)C1 [Example 229, 5-(2-Methyl-4-phenoxyphenyl)-N-((1R,3R)-3-(2-(methylamino)acetamido)cyclopentyl)-4-oxo-4,5-dihydro-3H-1-thia-3,5,8-triazaacenaphthylene-2-carboxamide] | 7.29
10 | C=CC(=O)N[C@@H]1CCC[C@@H](NC(=O)c2sc3nccc4c3c2NC(=O)N4c2ccnc(-c3ccccc3)c2)C1 [Example 232, N-((1R,3R)-3-Acrylamidocyclohexyl)-4-oxo-5-(2-phenylpyridin-4-yl)-4,5-dihydro-3H-1-thia-3,5,8-triazaacenaphthylene-2-carboxamide] | 7.05
11 | C=CC(=O)N[C@H]1CCC[C@H]1NC(=O)c1sc2nccc3c2c1NC(=O)N3c1ccc(OC2CCOCC2)cc1 [Example 234, N-((1R,2S)-2-Acrylamidocyclopentyl)-4-oxo-5-(4-((tetrahydro-2H-pyran-4-yl)oxy)phenyl)-4,5-dihydro-3H-1-thia-3,5,8-triazaacenaphthylene-2-carboxamide] | 6.76
12 | Cc1cc(Oc2ccccc2)ccc1N1C(=O)Nc2c(C(=O)N[C@@H]3CC[C@@H](NC(=O)CN)C3)sc3nccc1c23 [Example 235, N-((1R,3R)-3-(2-Aminoacetamido)cyclopentyl)-5-(2-methyl-4-phenoxyphenyl)-4-oxo-4,5-dihydro-3H-1-thia-3,5,8-triazaacenaphthylene-2-carboxamide] | 7.44
13 | Cc1cc(Oc2ccccc2)ccc1N1C(=O)Nc2c(C(=O)N[C@@H]3CC[C@@H](N)C3)sc3nccc1c23 [Example 236, N-((1R,3R)-3-Aminocyclopentyl)-5-(2-methyl-4-phenoxyphenyl)-4-oxo-4,5-dihydro-3H-1-thia-3,5,8-triazaacenaphthylene-2-carboxamide] | 7.00
14 | C=CC(=O)N[C@@H]1CCCC[C@H]1NC(=O)c1sc2nccc3c2c1NC(=O)N3c1ccc(Oc2ccccc2)nc1 [Example 239, N-((1R,2R)-2-Acrylamidocyclohexyl)-4-oxo-5-(6-phenoxypyridin-3-yl)-4,5-dihydro-3H-1-thia-3,5,8-triazaacenaphthylene-2-carboxamide] | 6.47
15 | Cc1cc(Oc2ccccc2)ccc1N1C(=O)Nc2c(C(=O)N[C@H]3CC[C@H](NC(=O)CN(C)C)C3)sc3nccc1c23 [Example 245, N-((1S,3S)-3-(2-(Dimethylamino)acetamido)cyclopentyl)-5-(2-methyl-4-phenoxyphenyl)-4-oxo-4,5-dihydro-3H-1-thia-3,5,8-triazaacenaphthylene-2-carboxamide] | 6.73
16 | CNCC(=O)N[C@H]1CC[C@H](NC(=O)c2sc3nccc4c3c2NC(=O)N4c2ccc(Oc3ccccc3)cc2C)C1 [Example 246, 5-(2-Methyl-4-phenoxyphenyl)-N-((1S,3S)-3-(2-(methylamino)acetamido)cyclopentyl)-4-oxo-4,5-dihydro-3H-1-thia-3,5,8-triazaacenaphthylene-2-carboxamide] | 6.84
17 | CN(C)C/C=C/C(=O)N[C@@H]1CC[C@H](NC(=O)c2sc3nccc4c3c2NC(=O)N4c2ccc(Oc3ccccc3)c(Cl)c2)C1 [Example 248, 5-(3-Chloro-4-phenoxyphenyl)-N-((1S,3R)-3-((E)-4-(dimethylamino)but-2-enamido)cyclopentyl)-4-oxo-4,5-dihydro-3H-1-thia-3,5,8-triazaacenaphthylene-2-carboxamide] | 6.98
18 | N[C@H]1CCC[C@H]1NC(=O)c1sc2nccc3c2c1NC(=O)N3c1cccc(-c2ccccc2)c1 [Example 249, 5-([1,1′-Biphenyl]-3-yl)-N-((1R,2S)-2-aminocyclopentyl)-4-oxo-4,5-dihydro-3H-1-thia-3,5,8-triazaacenaphthylene-2-carboxamide] | 6.90
19 | N[C@H]1CCCC[C@H]1NC(=O)c1sc2nccc3c2c1NC(=O)N3c1ccc(Oc2ccccc2)nc1 [Example 257, N-((1R,2S)-2-Aminocyclohexyl)-4-oxo-5-(6-phenoxypyridin-3-yl)-4,5-dihydro-3H-1-thia-3,5,8-triazaacenaphthylene-2-carboxamide] | 6.47
20 | N[C@H]1CCCC[C@H]1NC(=O)c1sc2nccc3c2c1NC(=O)N3c1ccnc(-c2ccccc2)c1 [Example 260, N-((1R,2S)-2-Aminocyclohexyl)-4-oxo-5-(2-phenylpyridin-4-yl)-4,5-dihydro-3H-1-thia-3,5,8-triazaacenaphthylene-2-carboxamide] | 6.45
21 | N[C@H]1CCC[C@H]1NC(=O)c1sc2nccc3c2c1NC(=O)N3c1ccnc(-c2ccccc2)c1 [Example 263, N-((1R,2S)-2-Aminocyclopentyl)-4-oxo-5-(2-phenylpyridin-4-yl)-4,5-dihydro-3H-1-thia-3,5,8-triazaacenaphthylene-2-carboxamide] | 6.38
22 | N[C@H]1CCC[C@H]1NC(=O)c1sc2nccc3c2c1NC(=O)N3c1ccc(Oc2ccccc2)nc1 [Example 265, N-((1R,2S)-2-Aminocyclopentyl)-4-oxo-5-(6-phenoxypyridin-3-yl)-4,5-dihydro-3H-1-thia-3,5,8-triazaacenaphthylene-2-carboxamide] | 6.24
23 | N[C@H]1CCC[C@H]1NC(=O)c1sc2nccc3c2c1NC(=O)N3c1cc(-c2ccccc2)ccn1 [Example 267, N-((1R,2S)-2-Aminocyclopentyl)-4-oxo-5-(4-phenylpyridin-2-yl)-4,5-dihydro-3H-1-thia-3,5,8-triazaacenaphthylene-2-carboxamide] | 6.21
24 | N[C@@H]1CCC[C@H]1NC(=O)c1sc2nccc3c2c1NC(=O)N3c1ccc(Oc2ccccc2)nc1 [Example 269, N-((1R,2R)-2-Aminocyclopentyl)-4-oxo-5-(6-phenoxypyridin-3-yl)-4,5-dihydro-3H-1-thia-3,5,8-triazaacenaphthylene-2-carboxamide] | 6.00

same assay, conditions: read-out: BTK_I_binding pIC50 (converted)

Row | SMILES | IC50 [nM]
25 | CC(=O)N[C@@H]1CCC[C@@H]1NC(=O)c1sc2nccc3c2c1NC(=O)N3c1ccnc(-c2ccccc2)c1 [Example 258, N-((1S,2R)-2-Acetamidocyclopentyl)-4-oxo-5-(2-phenylpyridin-4-yl)-4,5-dihydro-3H-1-thia-3,5,8-triazaacenaphthylene-2-carboxamide] | > 1000
26 | O=C(N[C@@H]1CCC[C@H]1O)c1sc2nccc3c2c1NC(=O)N3c1ccnc(-c2ccccc2)c1 [Example 268, N-((1R,2R)-2-Hydroxycyclopentyl)-4-oxo-5-(2-phenylpyridin-4-yl)-4,5-dihydro-3H-1-thia-3,5,8-triazaacenaphthylene-2-carboxamide] | 631
